Reference: PubChem BioAssay AID2060908 (Molecular Pharmacology Branch, DTP, NCI, 2025)

System: 186277-243-T-J2-PDC complex spheroids, viability
Experiment: Anticancer human tumor 186277-243-T-J2-PDC patient-derived colon adenocarcinoma cell line growth inhibition [RAS]
Conditions: for IC50: curve of first compound; for viability, T/C: stronger effect = lower value
From the text: RAS pathway inhibitors in Combinations in Complex Spheroids
A high-throughput screen of multi-cell type tumor spheroids was designed to identify active combinations of RAS pathway inhibitors and targeted small molecules. Complex spheroids include a stromal component modeled by human endothelial cells (HUVEC) and fibroblasts modeled by human mesenchymal stem cells (MSCs). The concentration ranges selected for each drug and investigational agent were based upon clinically achievable concentrations if the clinical Cmax of the agent was known.
Compounds. The drugs and investigational agents: abemaciclib (NSC768073), cobimetinib (NSC768068), divarasib (GDC6063, NSC841802), docetaxel (NSC628503), GDC-1971 (RLY-1971, NSC841576), gemcitabine (NSC613327), inavolisib (NSC800729), ipatasertib (NSC767898), KB-0742 (NSC834161), MRTX-1133 (NSC836407), osimertinib (NSC779217), RMC-4630 (NSC839698), RMC-6236 (NSC851965), RMC-6291 (NSC852671), Ro-3306 (NSC812927), sapanisertib (NSC764658), SN-38 (NSC673596), staurosporine (NSC755774), SY5609 (NSC837396), and tovorafenib (DAY101, NSC766906), were obtained from the National Cancer Institute (NCI) Developmental Therapeutics Program Chemical Repository. The FDA-approved anticancer drug set is available from the NCI Developmental Therapeutics Program. […] The stock solutions were prepared in dimethyl sulfoxide (DMSO, Sigma-Aldrich, St. Louis, MO, cat. D2650) at 800-fold the tested concentration and stored at -70 degrees C prior to their use. All drugs and investigational agents were tested over a range starting from a high concentration at or near the clinical Cmax and decreasing in half-log increments. If the clinical Cmax for an agent had not been determined, the highest concentration tested was 10 microM.
Cell Culture. All cells were maintained in an incubator at 37 degrees C and 5% CO2 with 95% humidity. The PDC lines were cultured according to standard operating procedures established by the NCI PDMR. All PDCs were thawed and cultured in Matrigel-coated flasks prepared with a working solution of 1X Ham's F-12 nutrient mix, without supplementation (Invitrogen, Waltham, MA, cat. 11765054), 100 U/mL penicillin-streptomycin (Invitrogen, cat. 15140122), and 2.5% Matrigel (Corning Inc., Corning, NY, cat. 354248) for the first three passages. The 362531-283-R-J2-PDC and 782815-120-R-J1-PDC lines were cultured in 6C/Colon 1B media, which includes advanced DMEM/F-12 (Thermo Fisher Scientific, cat. 12634028), 10 mM HEPES (Thermo Fisher Scientific, cat. 15630080), 1X GlutaMAX supplement (Thermo Fisher Scientific, cat. 35050061), 0.1 mg/mL primocin (InvivoGen, San Diego, CA, cat. ant-pm-2), 10% defined fetal bovine serum, heat inactivated (HyClone Laboratories Inc., Logan, UT, cat. SH30070.03HI), 50% L-WRN conditioned media (ATCC, cat. CRL-3276), 1.25 mM N-Acetyl-L-cysteine (Sigma-Aldrich, cat. A9165), 10 mM nicotinamide (Sigma-Aldrich, cat. N0636), 1X B-27 supplement (Thermo Fisher Scientific, cat. 17504044), 1X N-2 supplement (Thermo Fisher Scientific, cat. 17502048), 50 ng/mL human EGF (Thermo Fisher Scientific, cat. PHG0311), and 10 microM Y-27632 dihydrochloride (Tocris Bioscience, cat. 1254). The K12877-001-R-J1-PDC line was cultured in 6I media, which includes all 6C/Colon 1B media plus 10 ng/mL human FGF-10 (PeproTech, cat. 100-26), 1 ng/mL human FGF-2 (PeproTech, cat. 100-18B), 1 µM prostaglandin E2 (Tocris Bioscience, cat. 2296), […] hydrocortisone (Sigma-Aldrich, cat. H4001), and […] bovine insulin (Sigma-Aldrich, cat. I6634). The K86415-001-R-J1-PDC line was cultured in 6D media, which includes all 6C/Colon 1B media components minus the L-WRN conditioned media. The 485176-168-R4-J1-PDC was cultured in PANC media, which includes all 6C/Colon 1B media plus 100 ng/mL human FGF-10 (PeproTech, cat. 100-26), 500 nM SB-431542 (Selleckchem, cat. S1067), and 10 nM gastrin (Tocris Bioscience, cat. 3006). […]

[1] = second compound 0.0316 µM, first compound 0.0316 µM
[2] = second compound 0.0316 µM, first compound 0.1 µM
[3] = second compound 0.0316 µM, first compound 0.316 µM
[4] = second compound 0.0316 µM, first compound 1 µM
[5] = second compound 0.1 µM, first compound 0.0316 µM
[6] = second compound 0.1 µM, first compound 0.1 µM
[7] = second compound 0.1 µM, first compound 0.316 µM
[8] = second compound 0.1 µM, first compound 1 µM
[9] = second compound 0.316 µM, first compound 0.0316 µM
[10] = second compound 0.316 µM, first compound 0.1 µM
[11] = second compound 0.316 µM, first compound 0.316 µM
[12] = second compound 0.316 µM, first compound 1 µM
[13] = second compound 1 µM, first compound 0.0316 µM
[14] = second compound 1 µM, first compound 0.1 µM
[15] = second compound 1 µM, first compound 0.316 µM
[16] = second compound 1 µM, first compound 1 µM
[17] = second compound 3.16 µM, first compound 0.0316 µM
[18] = second compound 3.16 µM, first compound 0.1 µM
[19] = second compound 3.16 µM, first compound 0.316 µM
[20] = second compound 3.16 µM, first compound 1 µM
[21] = second compound 10 µM, first compound 0.0316 µM
[22] = second compound 10 µM, first compound 0.1 µM
[23] = second compound 10 µM, first compound 0.316 µM
[24] = second compound 10 µM, first compound 1 µM
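Also: spheroids exposed to compounds for 7 days before viability read.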

CC(Nc1ccc2c(c1)OCCn1cc(N3C(=O)OCC3C(F)F)nc1-2)C(N)=O (centres undefined) + C#Cc1c(F)ccc2cc(O)cc(-c3ncc4c(N5CC6CCC(C5)N6)nc(OCC56CCCN5CC(F)C6)nc4c3F)c12
IC50 (second compound 0.0316 µM): < 31.6 nM
IC50 (second compound 0.1 µM): < 31.6 nM
IC50 (second compound 0.316 µM): < 31.6 nM
IC50 (second compound 1 µM): < 31.6 nM
IC50 (second compound 3.16 µM): < 31.6 nM
IC50 (second compound 10 µM): < 31.6 nM
viability, T/C [1]: 45.9%
viability, T/C [2]: 39.7%
viability, T/C [3]: 16.1%
viability, T/C [4]: 7.04%
viability, T/C (second compound 0.0316 µM, first compound 3.16 µM): 3.9%
viability, T/C (second compound 0.0316 µM, first compound 10 µM): 3.75%
viability, T/C [5]: 25.7%
viability, T/C [6]: 16%
viability, T/C [7]: 4.89%
viability, T/C [8]: 2.76%
viability, T/C (second compound 0.1 µM, first compound 3.16 µM): 1.89%
viability, T/C (second compound 0.1 µM, first compound 10 µM): 2.88%
viability, T/C [9]: 18.2%
viability, T/C [10]: 7.51%
viability, T/C [11]: 2.9%
viability, T/C [12]: 2.32%
viability, T/C (second compound 0.316 µM, first compound 3.16 µM): 1.28%
viability, T/C (second compound 0.316 µM, first compound 10 µM): 1.02%
viability, T/C [13]: 9.56%
viability, T/C [14]: 5.56%
viability, T/C [15]: 2.6%
viability, T/C [16]: 1.95%
viability, T/C (second compound 1 µM, first compound 3.16 µM): 1.11%
viability, T/C (second compound 1 µM, first compound 10 µM): 1.01%
viability, T/C [17]: 8.36%
viability, T/C [18]: 4.7%
viability, T/C [19]: 2.45%
viability, T/C [20]: 1.84%
viability, T/C (second compound 3.16 µM, first compound 3.16 µM): 3.64%
viability, T/C (second compound 3.16 µM, first compound 10 µM): 0.74%
viability, T/C [21]: 6.16%
viability, T/C [22]: 2.81%
viability, T/C [23]: 1.2%
viability, T/C [24]: 0.66%
viability, T/C (second compound 10 µM, first compound 3.16 µM): 0.3%
viability, T/C (second compound 10 µM, first compound 10 µM): 0.16%

O=C(c1ccc(F)c(F)c1Nc1ccc(I)cc1F)N1CC(O)([C@@H]2CCCCN2)C1 + C#Cc1c(F)ccc2cc(O)cc(-c3ncc4c(N5CC6CCC(C5)N6)nc(OCC56CCCN5CC(F)C6)nc4c3F)c12
IC50 (second compound 0.0316 µM): 20.9 nM
IC50 (second compound 0.1 µM): 3.25 nM
IC50 (second compound 0.316 µM): < 3.16 nM
IC50 (second compound 1 µM): < 3.16 nM
IC50 (second compound 3.16 µM): < 3.16 nM
IC50 (second compound 10 µM): < 3.16 nM
viability, T/C (second compound 0.0316 µM, first compound 0.00316 µM): 72.4%
viability, T/C (second compound 0.0316 µM, first compound 0.01 µM): 56.3%
viability, T/C [1]: 47.1%
viability, T/C [2]: 15.4%
viability, T/C [3]: 5.69%
viability, T/C [4]: 6.25%
viability, T/C (second compound 0.1 µM, first compound 0.00316 µM): 50%
viability, T/C (second compound 0.1 µM, first compound 0.01 µM): 40.8%
viability, T/C [5]: 20%
viability, T/C [6]: 9.26%
viability, T/C [7]: 6.29%
viability, T/C [8]: 3.94%
viability, T/C (second compound 0.316 µM, first compound 0.00316 µM): 18.9%
viability, T/C (second compound 0.316 µM, first compound 0.01 µM): 17.5%
viability, T/C [9]: 10.5%
viability, T/C [10]: 9.19%
viability, T/C [11]: 4.54%
viability, T/C [12]: 3.72%
viability, T/C (second compound 1 µM, first compound 0.00316 µM): 12.6%
viability, T/C (second compound 1 µM, first compound 0.01 µM): 9.81%
viability, T/C [13]: 8.46%
viability, T/C [14]: 6.3%
viability, T/C [15]: 4.16%
viability, T/C [16]: 3.53%
viability, T/C (second compound 3.16 µM, first compound 0.00316 µM): 9%
viability, T/C (second compound 3.16 µM, first compound 0.01 µM): 9.32%
viability, T/C [17]: 7.86%
viability, T/C [18]: 5.98%
viability, T/C [19]: 3.91%
viability, T/C [20]: 3.32%
viability, T/C (second compound 10 µM, first compound 0.00316 µM): 6.85%
viability, T/C (second compound 10 µM, first compound 0.01 µM): 7.33%
viability, T/C [21]: 5.34%
viability, T/C [22]: 3.85%
viability, T/C [23]: 2.37%
viability, T/C [24]: 1.61%
